# Measured values taken from patent US8309718B2, “4-pyrazolyl-N-arylpyrimidin-2-amines and 4-pyrazolyl-N-heteroarylpyrimidin-2-amines as janus kinase inhibitors” (Incyte Corporation, priority 2007, dated 2012).
# Biological target: T1, human JAK2 (Homo sapiens, UniProt O60674)
# T1 construct: JAK2 (a.a. 828-1132); His tag (N); made in house; host or cells: insect cells (baculovirus)
# Test: In vitro JAK kinase assay (HTRF, phosphorylation of biotinylated peptide)
# Format: biochemical
# Conditions: catalytic domain a.a. 828-1132, 30 μM ATP, 500 nM peptide, room temperature 1 hr; read-out: JAK-2 IC50
# Description: Compounds herein were tested for inhibitory activity of JAK targets according to the following in vitro assay described in Park et al, Analytical Biochemistry 1999, 269, 94-104. The catalytic domains of human JAK1 (a.a. 837-1142), JAK2 (a.a. 828-1132) and JAK3 (a.a. 781-1124) with an N-terminal His tag were expressed using baculovirus in insect cells and purified. The catalytic activity of JAK1, JAK2 or JAK3 was assayed by measuring the phosphorylation of a biotinylated peptide. The phosphorylated peptide was detected by homogenous time resolved fluorescence (HTRF). IC50s of compounds were measured for each kinase in the reactions that contain the enzyme, ATP and 500 nM peptide in 50 mM Tris (pH 7.8) buffer with 100 mM NaCl, 5 mM DTT, and 0.1 mg/mL (0.01%) BSA. The ATP concentration in the reactions was 90 μM for JAK1, 30 μM for Jak2 and 3 μM for JAK3. Reactions were carried out at room temperature for 1 hr and then stopped with 20 μL 45 mM EDTA, 300 nM SA-APC, 6 nM Eu-Py20 in assay buffer (Perkin Elmer, Boston, Mass.). Binding to the Europium labeled antibody took place for 40 minutes and HTRF signal was measured on a Fusion plate reader (Perkin Elmer, Boston, Mass.). Certain of the above compounds were tested according to this assay.
# T1 sequence (O60674 828-1132): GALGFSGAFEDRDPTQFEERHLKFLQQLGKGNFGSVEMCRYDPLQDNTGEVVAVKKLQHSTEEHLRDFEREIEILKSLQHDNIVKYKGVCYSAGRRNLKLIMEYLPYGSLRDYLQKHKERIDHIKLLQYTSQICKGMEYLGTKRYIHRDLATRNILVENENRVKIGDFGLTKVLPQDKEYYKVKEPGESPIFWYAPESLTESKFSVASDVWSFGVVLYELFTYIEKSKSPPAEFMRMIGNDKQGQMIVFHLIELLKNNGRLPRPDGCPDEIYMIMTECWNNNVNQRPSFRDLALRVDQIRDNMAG
row,IC50 [nM],SMILES
1,< 100,"CCCN(CC1CC1)C(=O)c1ccc(Nc2nccc(-c3cnn(C(CC#N)C4CCCC4)c3)n2)cc1 (racemic) [Example 125, 4-(4-(1-(2-cyano-1-cyclopentylethyl)-1H-pyrazol-4-yl)pyrimidin-2-ylamino)-N-(cyclopropylmethyl)-N-propylbenzamide]"
2,< 100,"COc1ccc(Nc2ncc(C)c(-c3cnn(C(CC#N)C4CCCC4)c3)n2)cc1 (racemic) [Example 75, 3-cyclopentyl-3-(4-(2-(4-methoxyphenylamino)-5-methylpyrimidin-4-yl)-1H-pyrazol-1-yl)propanenitrile]"
3,< 100,"CCS(=O)(=O)N1CC(CC#N)(n2cc(-c3ccnc(Nc4ccc(C(=O)N5C6CC7CC5CC(C6)O7)cc4)n3)cn2)C1 [Example 274, 1-(ethylsulfonyl)-3-(4-(2-(4-(2-oxa-6-azatricyclo[3.3.1.1(3,7)]dec-6-ylcarbonyl)phenyl)aminopyrimidin-4-yl)-1H-pyrazol-1-yl)azetidin-3-ylacetonitrile]"
4,< 100,"CCS(=O)(=O)N1CCC(CC(CC#N)n2cc(-c3ccnc(Nc4ccc(-n5cccn5)cc4)n3)cn2)CC1 (racemic) [Example 43, 3-(4-(2-(4-(1H-pyrazol-1-yl)phenylamino)pyrimidin-4-yl)-1H-pyrazol-1-yl)-4-(1-(ethylsulfonyl)piperidin-4-yl)butanenitrile]"
5,< 100,"CN(C)C(=O)c1cccc(Nc2nccc(-c3cnn(C(CC#N)C4CCCC4)c3)n2)c1 (racemic) [Example 110, 3-(4-(1-(2-cyano-1-cyclopentylethyl)-1H-pyrazol-4-yl)pyrimidin-2-ylamino)-N,N-dimethylbenzamide]"
6,< 100,"CS(=O)(=O)N1CCC(C(CC#N)n2cc(-c3ccnc(Nc4ccc(N5CCOCC5)cc4)n3)cn2)CC1 (racemic) [Example 24, 3-(1-(methylsulfonyl)piperidin-4-yl)-3-(4-(2-(4-morpholinophenylamino)pyrimidin-4-yl)-1H-pyrazol-1-yl)propanenitrile]"
7,< 100,"N#CCC1(n2cc(-c3ccnc(Nc4ccc(S(=O)(=O)N5CCOCC5)cc4)n3)cn2)CCN(C(=O)c2ccno2)CC1 (racemic) [Example 15, 2-(1-(isoxazole-5-carbonyl)-4-(4-(2-(4-(morpholinosulfonyl)phenylamino)pyrimidin-4-yl)-1H-pyrazol-1-yl)piperidin-4-yl)acetonitrile]"
8,< 100,"N#CCC(C1CCCC1)n1cc(-c2ccnc(Nc3cccc(C(=O)NCCO)c3)n2)cn1 (racemic) [Example 112, 3-(4-(1-(2-cyano-1-cyclopentylethyl)-1H-pyrazol-4-yl)pyrimidin-2-ylamino)-N-(2-hydroxyethyl)benzamide]"
9,< 100,"CC(=O)Nc1ccc(Nc2ncc(C)c(-c3cnn(C(CC#N)CC4CCN(S(=O)(=O)c5ccn(C)n5)CC4)c3)n2)cc1 (racemic) [Example 51, N-(4-(4-(1-(1-cyano-3-(1-(1-methyl-1H-pyrazol-3-ylsulfonyl)piperidin-4-yl)propan-2-yl)-1H-pyrazol-4-yl)-5-methylpyrimidin-2-ylamino)phenyl)acetamide]"
10,< 100,"COc1cnc(Nc2cccc(C(=O)N3[C@@H]4CC[C@H]3C[C@@H](O)C4)c2)nc1-c1cnn(C(CC#N)C2CC2)c1 (mixture of isomers) [Example 332, 3-cyclopropyl-3-(4-{2-[(3-{[(3-endo)-3-hydroxy-8-azabicyclo[3.2.1]oct-8-yl]carbonyl}phenyl)amino]-5-methoxypyrimidin-4-yl}-1H-pyrazol-1-yl)propanenitrile]"
11,< 100,"CC1(C)NC(=O)O[C@]12CCN(C(=O)c1ccc(Nc3nccc(-c4cnn(C(CC#N)C5CCCC5)c4)n3)cc1)C2 (single isomer, unassigned) [Example 219, 3-cyclopentyl-3-(4-(2-(4-((S*)-4,4-dimethyl-2-oxo-1-oxa-3,7-diazaspiro[4.4]nonane-7-carbonyl)phenylamino)pyrimidin-4-yl)-1H-pyrazol-1-yl)propanenitrile]"
12,< 100,"Cn1ccc(S(=O)(=O)N2CCC(CC(CC#N)n3cc(-c4ccnc(Nc5ccc(-n6cccn6)cc5)n4)cn3)CC2)n1 (racemic) [Example 56, 3-(4-(2-(4-(1H-pyrazol-1-yl)phenylamino)pyrimidin-4-yl)-1H-pyrazol-1-yl)-4-(1-(1-methyl-1H-pyrazol-3-ylsulfonyl)piperidin-4-yl)butanenitrile]"
13,< 100,"CN(C)C1CCN(C(=O)c2ccc(Nc3nccc(-c4cnn(C(CC#N)C5CC5)c4)n3)cc2)C1 (mixture of isomers) [Example 270, 3-cyclopropyl-3-(4-(2-(4-(3-(dimethylamino)pyrrolidine-1-carbonyl)phenylamino)pyrimidin-4-yl)-1H-pyrazol-1-yl)propanenitrile]"
14,< 100,"N#CCC(C1CCOCC1)n1cc(-c2ccnc(Nc3ccc(C(=O)N4CCC(O)CC4)cc3)n2)cn1 (racemic) [Example 312, 3-{4-[2-({4-[(4-hydroxypiperidin-1-yl)carbonyl]phenyl}amino)pyrimidin-4-yl]-1H-pyrazol-1-yl}-3-(tetrahydro-2H-pyran-4-yl)propanenitrile]"
15,< 100,"N#CCC(C1CCCC1)n1cc(-c2ccnc(Nc3ccc(NC(=O)c4cc(F)cc(F)c4)cc3)n2)cn1 (racemic) [Example 185, N-(4-(4-(1-(2-cyano-1-cyclopentylethyl)-1H-pyrazol-4-yl)pyrimidin-2-ylamino)phenyl)-3,5-difluorobenzamide]"
16,< 100,"N#CCC(C1CCN(C(=O)c2ccccc2)CC1)n1cc(-c2ccnc(Nc3ccc(N4CCOCC4)cc3)n2)cn1 (racemic) [Example 27, 3-(1-benzoylpiperidin-4-yl)-3-(4-(2-(4-morpholinophenylamino)pyrimidin-4-yl)-1H-pyrazol-1-yl)propanenitrile]"
17,< 100,"Cn1ccc(S(=O)(=O)Nc2ccc(Nc3nccc(-c4cnn(C(CC#N)C5CCCC5)c4)n3)cc2)n1 (racemic) [Example 190, N-(4-(4-(1-(2-cyano-1-cyclopentylethyl)-1H-pyrazol-4-yl)pyrimidin-2-ylamino)phenyl)-1-methyl-1H-pyrazole-3-sulfonamide]"
18,< 100,"N#CCC(C1CCCC1)n1cc(-c2ccnc(Nc3cccc(NC(=O)O[C@@H]4CCOC4)c3)n2)cn1 (stereo partly drawn) [Example 200, (R)-tetrahydrofuran-3-yl 3-(4-(1-(2-cyano-1-cyclopentylethyl)-1H-pyrazol-4-yl)pyrimidin-2-ylamino)phenylcarbamate]"
19,< 100,"N#CCC(CC1CCN(S(=O)(=O)C2CC2)CC1)n1cc(-c2ccnc(Nc3ccc(N4CCOCC4=O)cc3)n2)cn1 (racemic) [Example 97, 4-(1-(cyclopropylsulfonyl)piperidin-4-yl)-3-(4-(2-(4-(3-oxomorpholino)phenylamino)pyrimidin-4-yl)-1H-pyrazol-1-yl)butanenitrile]"
20,< 100,"N#CCC(C1CCCC1)n1cc(-c2ccnc(Nc3ccc(C(=O)N4CCCC4)cc3)n2)cn1 (racemic) [Example 122, 3-cyclopentyl-3-(4-(2-(4-(pyrrolidine-1-carbonyl)phenylamino)pyrimidin-4-yl)-1H-pyrazol-1-yl)propanenitrile]"
21,< 100,"N#CCC(C1CCCC1)n1cc(-c2ccnc(Nc3ccc(C(=O)NCC4CC4)cc3)n2)cn1 (racemic) [Example 126, 4-(4-(1-(2-cyano-1-cyclopentylethyl)-1H-pyrazol-4-yl)pyrimidin-2-ylamino)-N-(cyclopropylmethyl)benzamide]"
22,< 100,"Cc1cnc(Nc2ccc(C(=O)N(C)C)cc2)nc1-c1cnn(C(CC#N)CC2CCN(C(=O)c3ccc(F)cc3F)CC2)c1 (racemic) [Example 68, 4-(4-(1-(1-cyano-3-(1-(2,4-difluorobenzoyl)piperidin-4-yl)propan-2-yl)-1H-pyrazol-4-yl)-5-methylpyrimidin-2-ylamino)-N,N-dimethylbenzamide]"
23,< 100,"Cc1cc(OC2CCC(CC#N)(n3cc(-c4ccnc(Nc5ccc(N6CCOCC6)cc5)n4)cn3)CC2)no1 (single isomer, unassigned) [Example 212, 2-(4-(5-methylisoxazol-3-yloxy)-1-(4-(2-(4-morpholinophenylamino)pyrimidin-4-yl)-1H-pyrazol-1-yl)cyclohexyl)acetonitrile]"
24,< 100,"Cc1cnc(Nc2ccccc2)nc1-c1cnn(C(CC#N)CC2CCN(C(=O)c3ccc(F)cc3F)CC2)c1 (racemic) [Example 66, 4-(1-(2,4-difluorobenzoyl)piperidin-4-yl)-3-(4-(5-methyl-2-(phenylamino)pyrimidin-4-yl)-1H-pyrazol-1-yl)butanenitrile]"
25,< 100,"COC1CCN(C(=O)c2ccc(Nc3nccc(-c4cnn(C(CC#N)C5CC5)c4)n3)cc2)CC1 (racemic) [Example 263, 3-cyclopropyl-3-(4-(2-(4-(4-methoxypiperidine-1-carbonyl)phenylamino)pyrimidin-4-yl)-1H-pyrazol-1-yl)propanenitrile]"
26,< 100,"N#CCC1(n2cc(-c3ccnc(Nc4ccc(S(=O)(=O)N5CCOCC5)cc4)n3)cn2)CC(C#N)C1 (single isomer, unassigned) [Example 344, 3-(cyanomethyl)-3-[4-(2-{[4-(morpholin-4-ylsulfonyl)phenyl]amino}pyrimidin-4-yl)-1H-pyrazol-1-yl]cyclobutanecarbonitrile]"
